Experimental findings from patent publication US8394825B2, “Compound” (Sterix Limited, priority 2007, dated 2013) are described below.

Structures are written as SMILES.

For one assay, the system named is DU145 cells. In words: Antiproliferative assay in DU145 cells, WST-1 cell proliferation assay, 96 hours (GI50). In kind it is cell-based. Conditions: 96 hours post-treatment, triplicate, read-out: DU-145 GI50. The protocol: Antiproliferative assays. DU145 cells were seeded into 96 well microtiter plates (5000 cells/well) and treated with […] of compounds or with vehicle control. At 96 hours post-treatment, live cell counts were determined by WST-1 cell proliferation assay (Roche, Penzberg, Germany), as per manufacturer's instructions. Viability results were expressed as a percentage of mean control values resulting in the calculation of the 50% growth inhibition (GI50). All experiments were performed in triplicate.
As for `COc1ccc(OC)c(CN2CCc3cc(OS(N)(=O)=O)c(OC)cc3C2)c1` [compound 94, 7-Methoxy-2-(2,5-dimethoxybenzyl)-6-O-sulfamoyl-1,2,3,4-tetrahydroisoquinoline], the GI50 was under 10 µM.
On to `COc1cc(OC)c(OC)cc1CN1CCc2cc(OS(N)(=O)=O)c(OC)cc2C1` [compound 95, 7-Methoxy-2-(2,4,5-trimethoxybenzyl)-6-O-sulfamoyl-1,2,3,4-tetrahydroisoquinoline], for which the GI50 was under 10 µM.
Turning to `COc1cc2c(cc1OS(N)(=O)=O)CCN(Cc1cccc(O)c1)C2` [compound 97, 2-(3-Hydroxybenzyl)-7-methoxy-6-O-sulfamoyl-1,2,3,4-tetrahydroisoquinoline], the GI50 was 50 to 100 µM.
Turning to `COc1cc2c(cc1OS(N)(=O)=O)CCN(Cc1ccc(C#N)cc1)C2` [compound 99, 2-(4-Cyanobenzyl)-7-methoxy-6-O-sulfamoyl-1,2,3,4-tetrahydroisoquinoline], the GI50 fell in the range of 50 to 100 µM.
Still for that read-out and setting: to `COc1cc2c(cc1OS(N)(=O)=O)CCN(Cc1cccc([N+](=O)[O-])c1)C2` [compound 100, 7-Methoxy-2-(3-nitrobenzyl)-6-O-sulfamoyl-1,2,3,4-tetrahydroisoquinoline] belongs under 10 µM; to `COc1cc2c(cc1OS(N)(=O)=O)CCN(Cc1cccc(Cl)c1)C2` [compound 101, 2-(3-Chlorobenzyl)-7-methoxy-6-O-sulfamoyl-1,2,3,4-tetrahydroisoquinoline], under 10 µM; to `COc1cc2c(cc1OS(N)(=O)=O)CCN(Cc1cccc(OC(F)(F)F)c1)C2` [compound 102, 7-Methoxy-2-(3-trifluoromethoxybenzyl)-6-O-sulfamoyl-1,2,3,4-tetrahydroisoquinoline], under 10 µM.
Still for that read-out and setting: with `COc1cc2c(cc1OS(N)(=O)=O)CCN(Cc1cccc(OC(C)C)c1)C2` [compound 104, 2-(3-Isopropoxybenzyl)-7-methoxy-6-O-sulfamoyl-1,2,3,4-tetrahydroisoquinoline] the figure was under 10 µM; with `COc1cc2c(cc1OS(N)(=O)=O)CCN(C(=O)c1ccccc1OC)C2` [compound 122, 7-Methoxy-2-(2-methoxybenzoyl)-6-O-sulfamoyl-1,2,3,4-tetrahydroisoquinoline], 10 to 50 µM.
For `COc1cccc(C(=O)N2CCc3cc(OS(N)(=O)=O)c(OC)cc3C2)c1` [compound 123, 7-Methoxy-2-(3-methoxybenzoyl)-6-O-sulfamoyl-1,2,3,4-tetrahydroisoquinoline], the GI50 was under 10 µM.
`COc1ccc(C(=O)N2CCc3cc(OS(N)(=O)=O)c(OC)cc3C2)cc1` [compound 124, 7-Methoxy-2-(4-methoxybenzoyl)-6-O-sulfamoyl-1,2,3,4-tetrahydroisoquinoline]: the GI50 is under 10 µM.
For `COc1cc2c(cc1OS(N)(=O)=O)CCN(C(=O)c1cc(OC)c(OC)c(OC)c1)C2` [compound 127, 7-methoxy-6-O-sulfamoyl-2-(3,4,5-trimethoxybenzoyl)-1,2,3,4-tetrahydroisoquinoline], the GI50 was under 10 µM.
The same measure, in the same setting: to `COc1ccc(C(=O)N2CCc3cc(OS(N)(=O)=O)c(OC)cc3C2=O)cc1` [compound 147, 2-(4-Methoxybenzoyl)-7-methoxy-6-O-sulfamoyl-3,4-dihydro-2H-isoquinolin-1-one] belongs over 100 µM.
For the compound `COc1cc2c(cc1OS(N)(=O)=O)CCN(C(=O)c1ccccc1OC)C2=O` [compound 148, 7-Methoxy-2-(2-methoxybenzoyl)-6-O-sulfamoyl-3,4-dihydro-2H-isoquinolin-1-one], the GI50 was under 10 µM.
The same measure, in the same setting: with `COc1cccc(C(=O)N2CCc3cc(OS(N)(=O)=O)c(OC)cc3C2=O)c1` [compound 149, 7-Methoxy-2-(3-methoxybenzoyl)-6-O-sulfamoyl-3,4-dihydro-2H-isoquinolin-1-one] the figure was under 10 µM; with `COc1cc(OC)cc(C(=O)N2CCc3cc(OS(N)(=O)=O)c(OC)cc3C2=O)c1` [compound 150, 2-(3,5-Dimethoxybenzoyl)-7-methoxy-6-O-sulfamoyl-3,4-dihydro-2H-isoquinolin-1-one], under 10 µM.
Regarding `COc1ccc(C(=O)N2CCc3cc(OS(N)(=O)=O)c(OC)cc3C2=O)cc1OC` [compound 151, 2-(3,4-Dimethoxybenzoyl)-7-methoxy-6-O-sulfamoyl-3,4-dihydro-2H-isoquinolin-1-one], the GI50 is under 10 µM.
Take `COc1cc2c(cc1OS(N)(=O)=O)CCN(C(=O)c1cc(OC)c(OC)c(OC)c1)C2=O` [compound 152, 7-methoxy-6-O-sulfamoyl-2-(3,4,5-trimethoxybenzoyl)-3,4-dihydro-2H-isoquinolin-1-one]: the GI50 is under 10 µM.
On the same count and under the same terms, with `COc1cc2c(cc1OS(N)(=O)=O)CCN(C(=O)c1cccc(C#N)c1)C2=O` [compound 153, 2-(3-Cyanobenzoyl)-7-methoxy-6-O-sulfamoyl-3,4-dihydro-2H-isoquinoline-1-one] the figure was 10 to 50 µM; with `COc1ccc(CN2CCc3cc(OS(N)(=O)=O)c(OC)cc3C2)cc1` [compound 164, 7-Methoxy-2-(4-methoxybenzyl)-6-O-sulfamoyl-3,4-dihydro-2H-isoquinoline], over 100 µM.
On to `COc1ccccc1CN1CCc2cc(OS(N)(=O)=O)c(OC)cc2C1` [compound 165, 7-Methoxy-2-(2-methoxybenzyl)-6-O-sulfamoyl-3,4-dihydro-2H-isoquinoline], for which the GI50 is over 100 µM.
Still for that read-out and setting: with `COc1cccc(CN2CCc3cc(OS(N)(=O)=O)c(OC)cc3C2)c1` [compound 166, 7-Methoxy-2-(3-methoxybenzyl)-6-O-sulfamoyl-3,4-dihydro-2H-isoquinoline] the figure was over 100 µM.
Take `COc1cc(CN2CCc3cc(OS(N)(=O)=O)c(OC)cc3C2=O)cc(OC)c1` [compound 167, 2-(3,5-Dimethoxybenzyl)-7-methoxy-6-O-sulfamoyl-3,4-dihydro-2H-isoquinolin-1-one]: the GI50 was over 100 µM.
Take `COc1cc2c(cc1OS(N)(=O)=O)CCN(Cc1cc(OC)c(OC)c(OC)c1)C2=O` [compound 168, 7-methoxy-6-O-sulfamoyl-2-(3,4,5-trimethoxybenzyl)-3,4-dihydroisoquinolin-1 (2H)-one]: the GI50 was over 100 µM.
Consider `COc1cc2c(cc1OS(N)(=O)=O)CCN(S(=O)(=O)c1cccc(C#N)c1)C2` [compound 187, 2-(3-Cyano-benzenesulfonyl)-7-methoxy-6-O-sulfamoyl-1,2,3,4-tetrahydroisoquinoline], for which the GI50 is over 100 µM.
Take `COc1cccc(S(=O)(=O)N2CCc3cc(OS(N)(=O)=O)c(OC)cc3C2)c1` [compound 188, 7-Methoxy-2-(3-methoxy-benzenesulfonyl)-6-O-sulfamoyl-1,2,3,4-tetrahydroisoquinoline]: the GI50 is 50 to 100 µM.
In the case of `COc1cc2c(cc1OS(N)(=O)=O)CCN(S(=O)(=O)c1cccc(C(F)(F)F)c1)C2` [compound 189, 7-Methoxy-6-O-sulfamoyl-2-(3-trifluoromethyl-benzenesulfonyl)-1,2,3,4-tetrahydroisoquinoline], the GI50 lay in the range of 10 to 50 µM.
As to `COc1cc2c(cc1OS(N)(=O)=O)CCN(S(=O)(=O)c1cccc(Cl)c1)C2` [compound 190, 2-(3-Chloro-benzenesulfonyl)-7-methoxy-6-O-sulfamoyl-1,2,3,4-tetrahydroisoquinoline], the GI50 lay in the range of 10 to 50 µM.
`COc1cc2c(cc1OS(N)(=O)=O)CCN(S(=O)(=O)c1cccc(C)c1)C2` [compound 191, 7-Methoxy-6-O-sulfamoyl-2-(toluene-3-sulfonyl)-1,2,3,4-tetrahydroisoquinoline]: the GI50 was in the range of 10 to 50 µM.
On to `COc1cc2c(cc1OS(N)(=O)=O)CCN(S(=O)(=O)c1cccc(OC(F)(F)F)c1)C2` [compound 192, 7-Methoxy-6-O-sulfamoyl-2-(3-trifluoromethoxy-benzenesulfonyl)-1,2,3,4-tetrahydroisoquinoline], for which the GI50 lay within 50 to 100 µM.
For the compound `COc1cc2c(cc1OS(N)(=O)=O)CCN(S(=O)(=O)c1ccccc1C#N)C2` [compound 193, 2-(2-Cyano-benzenesulfonyl)-7-methoxy-6-O-sulfamoyl-1,2,3,4-tetrahydroisoquinoline], the GI50 is under 10 µM.
For `COc1cc2c(cc1OS(N)(=O)=O)CCN(S(=O)(=O)c1ccccc1OC)C2` [compound 194, 7-Methoxy-2-(2-methoxy-benzenesulfonyl)-6-O-sulfamoyl-1,2,3,4-tetrahydroisoquinoline], the GI50 is over 100 µM.

Still in this assay, the particulars now being: Homo sapiens, DU-145, 96 hours post-treatment, triplicate.
In turn, `COc1ccc(C(=O)N2CCc3cc(OCc4ccccc4)ccc3C2)cc1OC` [compound 109, 6-Benzyloxy-2-(3,4-Dimethoxybenzoyl)-1,2,3,4-tetrahydroisoquinoline] had a GI50 of 10 to 50 µM.
For the compound `COc1cc(OC)cc(C(=O)N2CCc3cc(O)c(OC)cc3C2)c1` [compound 119, 2-(3,5-Dimethoxybenzoyl)-6-hydroxy-7-methoxy-1,2,3,4-tetrahydroisoquinoline], the GI50 was under 10 µM.
Still for that read-out and setting: to `COc1cc2c(cc1OCc1ccccc1)CCN(C(=O)c1ccc(C#N)cc1)C2=O` [compound 136, 6-(Benzyloxy)-2-(4-cyanobenzoyl)-7-methoxy-3,4-dihydro-2H-isoquinoline-1-one] belongs over 100 µM; to `COc1ccc(CN2CCc3cc(O[Si](C(C)C)(C(C)C)C(C)C)c(OC)cc3C2=O)cc1` [compound 154, 7-Methoxy-2-(4-methoxybenzyl)-6-(triisopropylsilyloxy)-3,4-dihydro-2H-isoquinolin-1-one], over 100 µM; to `COc1cc2c(cc1OCc1ccccc1)CCN(S(=O)(=O)c1cccc(Cl)c1)C2` [compound 173, 6-Benzyloxy-2-(3-chloro-benzenesulfonyl)-7-methoxy-1,2,3,4-tetrahydroisoquinoline], over 100 µM.
The compound `COc1cc2c(cc1O[Si](C(C)C)(C(C)C)C(C)C)CCN(S(=O)(=O)c1cccc(C#N)c1)C2` [compound 174, 2-(3-Cyano-benzenesulfonyl)-6-triisopropylsilyloxy-7-methoxy-1,2,3,4-tetrahydroisoquinoline] displayed a GI50 of over 100 µM.

One may read the GI50 as the concentration that inhibits growth by half.
